The first test relates to NCI-H2087. Briefly: relative viability (nuclei count vs DMSO), 5 days (fraction); higher = more cells survive. As to conditions: first compound 0.6325 µM. Summed up:
(§1)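 Values are medians from duplicate plates. Each reflects relative viability, defined as the nuclei count of treated wells over that of vehicle wells. Lung cancer cell lines in 1536-well plates were pin-tool dosed one day after seeding with one drug alone or with a fixed anchor-drug dose plus five library-drug doses (not always all listed) in √10 steps, then fixed, stained and imaged at 4× after 5 days.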
`COCC1(CO)C(=O)C2CCN1CC2` (stereo not given) [PRIMA-1MET] + CS(=O)(=O)N1CCN(Cc2cc3nc(-c4cccc5[nH]ncc45)nc(N4CCOCC4)c3s2)CC1 [Pictilisib] (partner 1 µM) registered a relative viability of 0.848.
Regarding `COCC1(CO)C(=O)C2CCN1CC2` (stereo not given) [PRIMA-1MET] + CCNC(=O)c1noc(-c2cc(C(C)C)c(O)cc2O)c1-c1ccc(CN2CCOCC2)cc1 [Luminespib] (partner 0.01 µM), the relative viability is 0.17.
Same read-out and setting: as for `COCC1(CO)C(=O)C2CCN1CC2` (stereo not given) [PRIMA-1MET] + CC(=O)c1c(C)c2cnc(Nc3ccc(N4CCNCC4)cn3)nc2n(C2CCCC2)c1=O [Palbociclib] (partner 0.5 µM), the figure is 0.183; as for `COCC1(CO)C(=O)C2CCN1CC2` (stereo not given) [PRIMA-1MET] + Cc1nc(Nc2ncc(C(=O)Nc3c(C)cccc3Cl)s2)cc(N2CCN(CCO)CC2)n1 [Dasatinib] (partner 0.075 µM), 0.727.

The test is the same for the next values; noted with them: first compound 2 µM.
As for `COCC1(CO)C(=O)C2CCN1CC2` (stereo not given) [PRIMA-1MET] + CS(=O)(=O)N1CCN(Cc2cc3nc(-c4cccc5[nH]ncc45)nc(N4CCOCC4)c3s2)CC1 [Pictilisib] (partner 1 µM), the relative viability is 0.966.
The same measure, in the same setting: with `COCC1(CO)C(=O)C2CCN1CC2` (stereo not given) [PRIMA-1MET] + CCNC(=O)c1noc(-c2cc(C(C)C)c(O)cc2O)c1-c1ccc(CN2CCOCC2)cc1 [Luminespib] (partner 0.01 µM) the figure was 0.153.
`COCC1(CO)C(=O)C2CCN1CC2` (stereo not given) [PRIMA-1MET] + CC(=O)c1c(C)c2cnc(Nc3ccc(N4CCNCC4)cn3)nc2n(C2CCCC2)c1=O [Palbociclib] (partner 0.5 µM) had a relative viability of 0.22.
With `COCC1(CO)C(=O)C2CCN1CC2` (stereo not given) [PRIMA-1MET] + Cc1nc(Nc2ncc(C(=O)Nc3c(C)cccc3Cl)s2)cc(N2CCN(CCO)CC2)n1 [Dasatinib] (partner 0.075 µM), the relative viability was found to be 0.626.

The test is the same for the next values; noted with them: first compound 6.325 µM.
With `COCC1(CO)C(=O)C2CCN1CC2` (stereo not given) [PRIMA-1MET] + CS(=O)(=O)N1CCN(Cc2cc3nc(-c4cccc5[nH]ncc45)nc(N4CCOCC4)c3s2)CC1 [Pictilisib] (partner 1 µM), the relative viability came to 0.642.
On the same count and under the same terms, as for `COCC1(CO)C(=O)C2CCN1CC2` (stereo not given) [PRIMA-1MET] + CCNC(=O)c1noc(-c2cc(C(C)C)c(O)cc2O)c1-c1ccc(CN2CCOCC2)cc1 [Luminespib] (partner 0.01 µM), the figure is 0.181; as for `COCC1(CO)C(=O)C2CCN1CC2` (stereo not given) [PRIMA-1MET] + CC(=O)c1c(C)c2cnc(Nc3ccc(N4CCNCC4)cn3)nc2n(C2CCCC2)c1=O [Palbociclib] (partner 0.5 µM), 0.203.
Still for that read-out and setting: with `COCC1(CO)C(=O)C2CCN1CC2` (stereo not given) [PRIMA-1MET] + Cc1nc(Nc2ncc(C(=O)Nc3c(C)cccc3Cl)s2)cc(N2CCN(CCO)CC2)n1 [Dasatinib] (partner 0.075 µM) the figure was 0.876.

The same test, now with this note: first compound 20 µM.
`COCC1(CO)C(=O)C2CCN1CC2` (stereo not given) [PRIMA-1MET] + CS(=O)(=O)N1CCN(Cc2cc3nc(-c4cccc5[nH]ncc45)nc(N4CCOCC4)c3s2)CC1 [Pictilisib] (partner 1 µM) displayed a relative viability of 0.659.
Same read-out and setting: as for `COCC1(CO)C(=O)C2CCN1CC2` (stereo not given) [PRIMA-1MET] + CCNC(=O)c1noc(-c2cc(C(C)C)c(O)cc2O)c1-c1ccc(CN2CCOCC2)cc1 [Luminespib] (partner 0.01 µM), the figure is 0.0951; as for `COCC1(CO)C(=O)C2CCN1CC2` (stereo not given) [PRIMA-1MET] + CC(=O)c1c(C)c2cnc(Nc3ccc(N4CCNCC4)cn3)nc2n(C2CCCC2)c1=O [Palbociclib] (partner 0.5 µM), 0.13; as for `COCC1(CO)C(=O)C2CCN1CC2` (stereo not given) [PRIMA-1MET] + Cc1nc(Nc2ncc(C(=O)Nc3c(C)cccc3Cl)s2)cc(N2CCN(CCO)CC2)n1 [Dasatinib] (partner 0.075 µM), 0.289.

A further test relates to BEN. Described as above. As to conditions: first compound 0.2 µM. Summed up:
as §1
For `COCC1(CO)C(=O)C2CCN1CC2` (stereo not given) [PRIMA-1MET] + CS(=O)(=O)N1CCN(Cc2cc3nc(-c4cccc5[nH]ncc45)nc(N4CCOCC4)c3s2)CC1 [Pictilisib] (partner 1 µM), the relative viability worked out at 0.608.
Same read-out and setting: as for `COCC1(CO)C(=O)C2CCN1CC2` (stereo not given) [PRIMA-1MET] + CCNC(=O)c1noc(-c2cc(C(C)C)c(O)cc2O)c1-c1ccc(CN2CCOCC2)cc1 [Luminespib] (partner 0.01 µM), the figure is 0.35; as for `COCC1(CO)C(=O)C2CCN1CC2` (stereo not given) [PRIMA-1MET] + CC(=O)c1c(C)c2cnc(Nc3ccc(N4CCNCC4)cn3)nc2n(C2CCCC2)c1=O [Palbociclib] (partner 0.5 µM), 0.46.
Same read-out and setting: with `COCC1(CO)C(=O)C2CCN1CC2` (stereo not given) [PRIMA-1MET] + Cc1nc(Nc2ncc(C(=O)Nc3c(C)cccc3Cl)s2)cc(N2CCN(CCO)CC2)n1 [Dasatinib] (partner 0.075 µM) the figure was 0.306.

Staying with this test, now noted: first compound 0.6325 µM.
The compound `COCC1(CO)C(=O)C2CCN1CC2` (stereo not given) [PRIMA-1MET] + CS(=O)(=O)N1CCN(Cc2cc3nc(-c4cccc5[nH]ncc45)nc(N4CCOCC4)c3s2)CC1 [Pictilisib] (partner 1 µM) came in with a relative viability of 0.514.
Same read-out and setting: with `COCC1(CO)C(=O)C2CCN1CC2` (stereo not given) [PRIMA-1MET] + CCNC(=O)c1noc(-c2cc(C(C)C)c(O)cc2O)c1-c1ccc(CN2CCOCC2)cc1 [Luminespib] (partner 0.01 µM) the figure was 0.276; with `COCC1(CO)C(=O)C2CCN1CC2` (stereo not given) [PRIMA-1MET] + CC(=O)c1c(C)c2cnc(Nc3ccc(N4CCNCC4)cn3)nc2n(C2CCCC2)c1=O [Palbociclib] (partner 0.5 µM), 0.463.
On the same count and under the same terms, as for `COCC1(CO)C(=O)C2CCN1CC2` (stereo not given) [PRIMA-1MET] + Cc1nc(Nc2ncc(C(=O)Nc3c(C)cccc3Cl)s2)cc(N2CCN(CCO)CC2)n1 [Dasatinib] (partner 0.075 µM), the figure is 0.279.

Staying with this test, now noted: first compound 6.325 µM.
In turn, `COCC1(CO)C(=O)C2CCN1CC2` (stereo not given) [PRIMA-1MET] + CS(=O)(=O)N1CCN(Cc2cc3nc(-c4cccc5[nH]ncc45)nc(N4CCOCC4)c3s2)CC1 [Pictilisib] (partner 1 µM) showed a relative viability of 0.521.

These data come from the supplement of paper PMC10307832.
